Assay results as given in PMC9090415, “Discovery of small molecule inhibitors of Plasmodium falciparum apicoplast DNA polymerase” (Journal of Enzyme Inhibition and Medicinal Chemistry, 2022).

Target: P. falciparum apicoplast DNA polymerase (Pf-apPOL) (Plasmodium falciparum, UniProt Q8ILY1)
Test: Fluorescence-based high-throughput DNA polymerase assay (molecular beacon), primary screen and dose-response
Format: biochemical
Conditions: for DNA Pol: 90 min, 10 µM; for % inhibition apPOL 180' 2.5 / % inhibition apPOL 180' 5 / % inhibition apPOL 180' 10 / % inhibition apPOL 180' 20 / % inhibition apPOL 180' 40 / % inhibition apPOL 180' 80: read at 180'
Outline: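 Single-point screening used 10 µM compound with 20 nM polymerase, 20 nM hairpin substrate and 6 µM dNTPs for 90 min at 25 °C. Confirmatory titrations (2.5–80 µM) followed fluorescence at three times, and IC50 was derived from a fit including a cooperativity term n.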

[1] = first dose-response, concentration 10
[2] = 'DNA Pol' of the 186 hits list (primary screen value)

Chain of P. falciparum apicoplast DNA polymerase (Pf-apPOL) (Q8ILY1 entry or part of it): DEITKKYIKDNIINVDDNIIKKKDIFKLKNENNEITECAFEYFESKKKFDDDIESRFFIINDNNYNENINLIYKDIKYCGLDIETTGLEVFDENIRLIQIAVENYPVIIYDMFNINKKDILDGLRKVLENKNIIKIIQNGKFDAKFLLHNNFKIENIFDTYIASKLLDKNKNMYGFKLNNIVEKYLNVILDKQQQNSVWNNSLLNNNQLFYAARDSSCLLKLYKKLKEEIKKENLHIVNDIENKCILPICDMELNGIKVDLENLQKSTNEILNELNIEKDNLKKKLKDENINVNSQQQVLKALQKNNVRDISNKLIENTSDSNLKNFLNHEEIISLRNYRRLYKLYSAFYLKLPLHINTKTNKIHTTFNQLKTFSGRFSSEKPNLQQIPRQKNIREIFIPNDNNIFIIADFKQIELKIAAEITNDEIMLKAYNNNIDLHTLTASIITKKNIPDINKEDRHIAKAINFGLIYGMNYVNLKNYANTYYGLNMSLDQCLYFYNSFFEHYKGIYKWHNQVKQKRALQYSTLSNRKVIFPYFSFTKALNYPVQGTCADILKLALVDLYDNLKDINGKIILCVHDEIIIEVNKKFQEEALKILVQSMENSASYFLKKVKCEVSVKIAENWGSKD

For `Cn1nc(-c2nc(-c3ccccc3)no2)c2c1CCN(C(=O)Cc1cccs1)C2` [Molecule 58, O=C(N1CCc2c(C1)c(nn2C)c1onc(n1)c1ccccc1)Cc1cccs1], the “DNA Pol” value (186 hits, DNA Pol (screen value), unit not given) was 38, the “DNA Pol” value ('DNA Pol' (screen value), unit not given) was 38 and the “% inhibition Apo pol 10' 2.5” value (DRC-1, read at 10', concentration 2.5) was 10%. The “% inhibition Apo pol 10' 5” value (DRC-1, read at 10', concentration 5) was 10%, the “% inhibition Apo pol 10' 10” value (DRC-1, read at 10', concentration 10) was 35% and the “% inhibition Apo pol 10' 20” value (DRC-1, read at 10', concentration 20) was 48%. The “% inhibition Apo pol 10' 40” value (DRC-1, read at 10', concentration 40) was 65%, the “% inhibition Apo pol 10' 80” value (DRC-1, read at 10', concentration 80) was 65% and the “% inhibition Apol 90' 2.5” value (DRC-1, read at 90', concentration 2.5) was -0.451%. The “% inhibition Apol 90' 5” value (DRC-1, read at 90', concentration 5) was 2.41%, the “% inhibition Apol 90' 10” value (DRC-1, read at 90', concentration 10) was 21% and the “% inhibition Apol 90' 20” value (DRC-1, read at 90', concentration 20) was 37%. For the same compound, the “% inhibition Apol 90' 40” value (DRC-1, read at 90', concentration 40) was 58%, the “% inhibition Apol 90' 80” value (DRC-1, read at 90', concentration 80) was 67% and the “% inhibition apPOL 180' 2.5” value (DRC-1, concentration 2.5) was -6%. The “% inhibition apPOL 180' 5” value (DRC-1, concentration 5) was -3.68%, the “% inhibition apPOL 180' 10” value (DRC-1, concentration 10) was 9% and the “% inhibition apPOL 180' 20” value (DRC-1, concentration 20) was 21%. For the same compound, the “% inhibition apPOL 180' 40” value (DRC-1, concentration 40) was 45%, the “% inhibition apPOL 180' 80” value (DRC-1, concentration 80) was 62% and the “% inhibition Apo pol 5'” value (DRC-2, concentration 5) was 10%. The “% inhibition Apol 40'” value (DRC-2, concentration 2.5) was 9%, the “% inhibition ApPOL 90'” value (DRC-2, concentration 40) was 54% and the “% inhibition ApPOL 90'” value (DRC-2, concentration 80) was 54%. The “% inhibition Apo pol 5' 2.5” value (DRC-2, read at 5', concentration 2.5) was 7.55%, the “% inhibition Apo pol 5' 5” value (DRC-2, read at 5', concentration 5) was 10% and the “% inhibition Apo pol 5' 10” value (DRC-2, read at 5', concentration 10) was 18%. The “% inhibition Apo pol 5' 20” value (DRC-2, read at 5', concentration 20) was 27%, the “% inhibition Apo pol 5' 40” value (DRC-2, read at 5', concentration 40) was 28% and the “% inhibition Apo pol 5' 80” value (DRC-2, read at 5', concentration 80) was 16%. For the same compound, the “% inhibition Apol 40' 2.5” value (DRC-2, read at 40', concentration 2.5) was 9%, the “% inhibition Apol 40' 5” value (DRC-2, read at 40', concentration 5) was 13% and the “% inhibition Apol 40' 10” value (DRC-2, read at 40', concentration 10) was 24%. For the same compound, the “% inhibition Apol 40' 20” value (DRC-2, read at 40', concentration 20) was 39%, the “% inhibition Apol 40' 40” value (DRC-2, read at 40', concentration 40) was 51% and the “% inhibition Apol 40' 80” value (DRC-2, read at 40', concentration 80) was 47%. The “% inhibition ApPOL 90' 2.5” value (DRC-2, read at 90', concentration 2.5) was 7.37%, the “% inhibition ApPOL 90' 5” value (DRC-2, read at 90', concentration 5) was 11% and the “% inhibition ApPOL 90' 10” value (DRC-2, read at 90', concentration 10) was 23%. The “% inhibition ApPOL 90' 20” value (DRC-2, read at 90', concentration 20) was 40%, the “% inhibition ApPOL 90' 40” value (DRC-2, read at 90', concentration 40) was 54% and the “% inhibition ApPOL 90' 80” value (DRC-2, read at 90', concentration 80) was 54%. For the same compound, the “% inhibition apPOL 180' 2.5” value (DRC-2, concentration 2.5) was 3.22%, the “% inhibition apPOL 180' 5” value (DRC-2, concentration 5) was 6% and the “% inhibition apPOL 180' 10” value (DRC-2, concentration 10) was 15%. For the same compound, the “% inhibition apPOL 180' 20” value (DRC-2, concentration 20) was 31%, the “% inhibition apPOL 180' 40” value (DRC-2, concentration 40) was 52% and the “% inhibition apPOL 180' 80” value (DRC-2, concentration 80) was 56%. The “% inhibition Apo pol 10'” value (first dose-response, concentration 2.5) was 10%, the “% inhibition Apo pol 10'” value (first dose-response, concentration 5) was 10% and the “% inhibition Apo pol 10'” value (first dose-response, concentration 40) was 65%. For the same compound, the “% inhibition Apo pol 10'” value (first dose-response, concentration 80) was 65%, the “% inhibition Apol 90'” value [1] was 21% and the “% inhibition apPOL 180'” value [1] was 9%. For the same compound, the “% inhibition apPOL 180'” value (first dose-response, concentration 20) was 21%.
For `O=C1N=C(Nc2cccc(Cl)c2Cl)S/C1=C\c1ccco1` [Molecule 3, O=C1N=C(S/C/1=C\c1ccco1)Nc1cccc(c1Cl)Cl], the “DNA Pol” value [2] was 74, the “DNA Pol” value (DNA Pol (primary screen value)) was 74 and the “% inhibition Apo pol 10'” value (DRC-1, concentration 2.5) was 26.4621%. The “% inhibition Apo pol 10'” value (DRC-1, concentration 5) was 50.3585%, the “% inhibition Apo pol 10'” value (DRC-1, concentration 10) was 71.7156% and the “% inhibition Apo pol 10'” value (DRC-1, concentration 20) was 70.1447%. The “% inhibition Apo pol 10'” value (DRC-1, concentration 40) was 64.4851%, the “% inhibition Apo pol 10'” value (DRC-1, concentration 80) was 49.9988% and the “% inhibition Apol 90'” value (DRC-1, concentration 2.5) was 14.8677%. The “% inhibition Apol 90'” value (DRC-1, concentration 5) was 38.7366%, the “% inhibition Apol 90'” value (DRC-1, concentration 10) was 64.2373% and the “% inhibition Apol 90'” value (DRC-1, concentration 20) was 68.803%. The “% inhibition Apol 90'” value (DRC-1, concentration 40) was 72.5757%, the “% inhibition Apol 90'” value (DRC-1, concentration 80) was 68.4026% and the “% inhibition apPOL 180'” value (DRC-1, concentration 2.5) was 3.99%. The “% inhibition apPOL 180'” value (DRC-1, concentration 5) was 24.8255%, the “% inhibition apPOL 180'” value (DRC-1, concentration 10) was 52.4106% and the “% inhibition apPOL 180'” value (DRC-1, concentration 20) was 60.3634%. The “% inhibition apPOL 180'” value (DRC-1, concentration 40) was 70.3618%, the “% inhibition apPOL 180'” value (DRC-1, concentration 80) was 71.4479% and the “% inhibition Apo pol 5'” value (DRC-2, concentration 2.5) was 35%. For the same compound, the “% inhibition Apo pol 5'” value (DRC-2, concentration 5) was 38%, the “% inhibition Apo pol 5'” value (DRC-2, concentration 10) was 42% and the “% inhibition Apo pol 5'” value (DRC-2, concentration 20) was 31%. For the same compound, the “% inhibition Apo pol 5'” value (DRC-2, concentration 40) was 11%, the “% inhibition Apo pol 5'” value (DRC-2, concentration 80) was -21% and the “% inhibition Apol 40'” value (DRC-2, concentration 2.5) was 37%. For the same compound, the “% inhibition Apol 40'” value (DRC-2, concentration 5) was 44%, the “% inhibition Apol 40'” value (DRC-2, concentration 10) was 58% and the “% inhibition Apol 40'” value (DRC-2, concentration 20) was 56%. The “% inhibition Apol 40'” value (DRC-2, concentration 40) was 44%, the “% inhibition Apol 40'” value (DRC-2, concentration 80) was 25% and the “% inhibition ApPOL 90'” value (DRC-2, concentration 2.5) was 34%. For the same compound, the “% inhibition ApPOL 90'” value (DRC-2, concentration 5) was 42%, the “% inhibition ApPOL 90'” value (DRC-2, concentration 10) was 59% and the “% inhibition ApPOL 90'” value (DRC-2, concentration 20) was 60%. The “% inhibition ApPOL 90'” value (DRC-2, concentration 40) was 53%, the “% inhibition ApPOL 90'” value (DRC-2, concentration 80) was 40% and the “% inhibition apPOL 180'” value (DRC-2, concentration 2.5) was 22%. The “% inhibition apPOL 180'” value (DRC-2, concentration 5) was 31%, the “% inhibition apPOL 180'” value (DRC-2, concentration 10) was 54% and the “% inhibition apPOL 180'” value (DRC-2, concentration 20) was 62%. For the same compound, the “% inhibition apPOL 180'” value (DRC-2, concentration 40) was 60% and the “% inhibition apPOL 180'” value (DRC-2, concentration 80) was 53%.
For `CCC(C)NC(=O)c1cc(NC(C)=O)cc2nc(C)ccc12` (centres unmarked) [KU0206314], the “DNA Pol” value [2] was 24, the “DNA Pol” value (DNA Pol (primary screen value)) was 24 and the “% inhibition Apo pol 10'” value (DRC-1, concentration 2.5) was 2.024%. For the same compound, the “% inhibition Apo pol 10'” value (DRC-1, concentration 5) was 11.6857%, the “% inhibition Apo pol 10'” value (DRC-1, concentration 10) was 27.7087% and the “% inhibition Apo pol 10'” value (DRC-1, concentration 20) was 37.1675%. The “% inhibition Apo pol 10'” value (DRC-1, concentration 40) was 74.587%, the “% inhibition Apo pol 10'” value (DRC-1, concentration 80) was 89.0945% and the “% inhibition Apol 90'” value (DRC-1, concentration 2.5) was -1.658%. The “% inhibition Apol 90'” value (DRC-1, concentration 5) was 3.672%, the “% inhibition Apol 90'” value (DRC-1, concentration 10) was 15.6061% and the “% inhibition Apol 90'” value (DRC-1, concentration 20) was 20.1807%. For the same compound, the “% inhibition Apol 90'” value (DRC-1, concentration 40) was 54.0066%, the “% inhibition Apol 90'” value (DRC-1, concentration 80) was 77.404% and the “% inhibition apPOL 180'” value (DRC-1, concentration 2.5) was -4.723%. The “% inhibition apPOL 180'” value (DRC-1, concentration 5) was -1.48%, the “% inhibition apPOL 180'” value (DRC-1, concentration 10) was 7.7142% and the “% inhibition apPOL 180'” value (DRC-1, concentration 20) was 9.245%. The “% inhibition apPOL 180'” value (DRC-1, concentration 40) was 37.6309%, the “% inhibition apPOL 180'” value (DRC-1, concentration 80) was 66.384% and the “% inhibition Apo pol 5'” value (DRC-2, concentration 2.5) was 10%. The “% inhibition Apo pol 5'” value (DRC-2, concentration 5) was 11%, the “% inhibition Apo pol 5'” value (DRC-2, concentration 10) was 29% and the “% inhibition Apo pol 5'” value (DRC-2, concentration 20) was 42%. For the same compound, the “% inhibition Apo pol 5'” value (DRC-2, concentration 40) was 49%, the “% inhibition Apo pol 5'” value (DRC-2, concentration 80) was 53% and the “% inhibition Apol 40'” value (DRC-2, concentration 2.5) was 7%. The “% inhibition Apol 40'” value (DRC-2, concentration 5) was 7%, the “% inhibition Apol 40'” value (DRC-2, concentration 10) was 25% and the “% inhibition Apol 40'” value (DRC-2, concentration 20) was 40%. For the same compound, the “% inhibition Apol 40'” value (DRC-2, concentration 40) was 58%, the “% inhibition Apol 40'” value (DRC-2, concentration 80) was 70% and the “% inhibition ApPOL 90'” value (DRC-2, concentration 2.5) was 5.39%. For the same compound, the “% inhibition ApPOL 90'” value (DRC-2, concentration 5) was 6%, the “% inhibition ApPOL 90'” value (DRC-2, concentration 10) was 21% and the “% inhibition ApPOL 90'” value (DRC-2, concentration 20) was 35%. The “% inhibition ApPOL 90'” value (DRC-2, concentration 40) was 57%, the “% inhibition ApPOL 90'” value (DRC-2, concentration 80) was 73% and the “% inhibition apPOL 180'” value (DRC-2, concentration 2.5) was 1.48%. For the same compound, the “% inhibition apPOL 180'” value (DRC-2, concentration 5) was 0.928%, the “% inhibition apPOL 180'” value (DRC-2, concentration 10) was 12% and the “% inhibition apPOL 180'” value (DRC-2, concentration 20) was 23%. For the same compound, the “% inhibition apPOL 180'” value (DRC-2, concentration 40) was 48% and the “% inhibition apPOL 180'” value (DRC-2, concentration 80) was 72%.
